Where two headings read alike, the source gives them in different places.
Columns and labels:
REV-ERBα LBD = target: T1, REV-ERBα LBD (Homo sapiens, UniProt P20393); assay: FRET assay of NCoR ID1 CoRNR box recruitment; type: biochemical; parameters: agonist-dependent recruitment of NCoR ID1 CoRNR box to the REV-ERBα-LBD
T1 sequence (P20393 284-614 limits assumed): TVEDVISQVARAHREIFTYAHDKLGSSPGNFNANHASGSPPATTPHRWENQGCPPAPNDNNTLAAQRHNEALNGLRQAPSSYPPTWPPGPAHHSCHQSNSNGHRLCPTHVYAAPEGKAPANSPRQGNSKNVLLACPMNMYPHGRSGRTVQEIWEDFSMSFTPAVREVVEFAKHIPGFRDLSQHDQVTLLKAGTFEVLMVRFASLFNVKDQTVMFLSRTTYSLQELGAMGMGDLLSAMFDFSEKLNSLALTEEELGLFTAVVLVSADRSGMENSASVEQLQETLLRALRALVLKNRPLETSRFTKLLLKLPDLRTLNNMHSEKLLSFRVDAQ
Procedure: We noted a recent patent that described a series of REV-ERB agonists (6-substituted[1,2,4]triazolo[4,3-b]pyridazines) in assays that detected the ability of small molecules to enhance the interaction of REV-ERBα with NCoR either in biochemical or cell-based assays.
Histidine tagged REV-ERBα/β complexed with heme was added to each well to a final concentration of 4 nM. NCoR ID1 fluorescein (ref#PV4622, Batch# 1797468C) was added to each well to a final concentration of 150 nM, and terbium anti-histidine (ref#PV5895, batch 1730002B) was added to a final concentration of 1 nM. Mixture was incubated at room temperature on an orbital shaker for 1 h at 200 rpm. The lanthascreen assay protocol (Dual PMT, excitation 340 nm, dual emission 495/520, Gain 110/110) was used to read the plate.

[1] = tested on: REV-ERBα F497A, F443A, L480A, F439A, and F484A; assay: two-hybrid reporter assay with mutant receptors; type: cell-based, human; details: F484A vs WT
Procedure: The removal of the bulkier Phe488 sidechain may allow for the ligand binding pocket to wrap around the ligand more tightly, which may explain the higher activity of this mutant REV-ERB.
The NCoR-Vp16 plasmid and REV-ERBα/β-FL GAL4-DBD wild-type or point mutation plasmids were incubated with the transfection agent, Lipofectamine 2000. GFP plasmid was also in the transfection mix to confirm transfection efficiency. HEK cells were plated in 10 cm dishes for western blot analysis, and HEK UAS-luc cells were plated in 96 well plates for luciferase assay analysis. Prior to cellular adherence, transfection mix was added. The cells and transfection mix were incubated at 37 °C in a humidified atmosphere of 5% CO2. The transfection incubation lasted overnight for luciferase assays and 48 h for protein isolation/western blot analysis. For luciferase assays, REV-ERB agonists were added in an 11-point serial dilution the day following overnight transfection. Cells were incubated with the compound for 24 h, prior to luciferin addition and luminescence read out.

PXR = PXR (Homo sapiens, UniProt O75469); assay: PXR assay; type: cell-based; details: relative to 5μM rifampicin
Sequence of PXR (O75469 whole entry): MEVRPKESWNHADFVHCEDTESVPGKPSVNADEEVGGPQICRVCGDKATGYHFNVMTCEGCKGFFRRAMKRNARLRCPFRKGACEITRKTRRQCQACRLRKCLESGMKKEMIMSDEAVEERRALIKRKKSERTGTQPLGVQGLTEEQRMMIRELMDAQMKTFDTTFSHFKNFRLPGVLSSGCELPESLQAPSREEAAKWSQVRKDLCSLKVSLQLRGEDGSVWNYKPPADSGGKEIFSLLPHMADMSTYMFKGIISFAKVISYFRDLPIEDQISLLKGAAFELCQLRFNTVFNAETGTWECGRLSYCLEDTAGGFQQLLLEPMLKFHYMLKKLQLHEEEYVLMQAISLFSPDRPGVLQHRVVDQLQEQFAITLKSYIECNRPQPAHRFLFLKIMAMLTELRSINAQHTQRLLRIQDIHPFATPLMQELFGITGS
Description: We thank the reviewers for the constructive comments, and we have responded to each of the […]
Overall, this is a commendable structure-function study on the transcriptional repressor, REV-ERBα. It includes the identification of an agonist that belongs to the non-heme class of small ligands. The study combines cell-based and in vitro, in vivo, and crystallographic analyses of the ligand-receptor molecular complex.
However, as a spring-board for therapeutic drug discovery, there are a few additional issues that may need to be clarified.
1. In the HEK293 2-hybrid assay, the ERB agonists are described as activators of transcription.
Perhaps, they would be more appropriately described as 'repressors'.
We have updated the manuscript to clarify this issue. In the original manuscript, we used the following to describe how the 2-hybrid assay switches agonists from repressors to activators to allow for better resolution of activity, “This format of the assay essentially functions as a mammalian 2-hybrid assay and detects REVERB agonists as activators of transcription effectively enhancing the sensitivity of such an assay from the typical one hybrid system that detects enhancement of transcriptional repression.” […]

Compound: Clc1nnc2ccc(Oc3ccccc3-c3ccccc3)nn12 [STL1267]
- efficacy of NCoR ID1 recruitment relative to SR9009 (REV-ERBα LBD): roughly double
- potency relative to SR9009 in the FRET assay (REV-ERBα LBD): more than ten times greater
- EC50 (REV-ERBα LBD; REV-ERBα-LBD): 130 nM
- potency relative to SR9009 in the FRET assay (REV-ERBα LBD; listed as 1267): 14.6 fold
- effect of mutation on STL1267 induced REV-ERBα/NCoR interaction [1]: loss or severe reduction in activity
- activity at PXR, of the activity of 5μM rifampicin (PXR): 18%

From publication PMC9681850, “Structural basis of synthetic agonist activation of the nuclear receptor REV-ERB” (Nature Communications, 2022)
